Experimental data: US20250145600A1, “2-((4-((S)-2-(4-CHLORO-2-FLUOROPHENYL)-2-METHYLBENZO[D][1,3]DIOXOL-4-YL)PIPERIDIN-1-YL)METHYL)-1-(((S)-OXETAN-2-YL)METHYL)-1H-IMIDAZOLE DERIVATIVES AS ACTIVATORS OF THE GLP1 RECEPTOR FOR THE TREATMENT OF OBESITY” (Novartis AG, priority 2022, published 2025)

Biological target: human GLP1R (hGLP1R) (Homo sapiens, UniProt P43220)
Assay: Human GLP1R β-arrestin recruitment assay (PathHunter)
Format: cell-based
Design: insert synthesized by GeneArt 93-0164 (CHO-K1-EA parental cells); 93-0491 (pCMV PK vector bundle)
Conditions: CHO-hGLP1R-β-arrestin cells; for EC50: 2 h at 37° C., top concentration 30 μM, read-out: Beta-Arrestin assay EC50 Mean; for Emax: relative to GLP1(7-36), read-out: Beta-Arrestin assay Emax (%)
Experimental: Compounds of formula (I) according to the invention were tested in the following cellular assays that measure the intracellular cAMP concentration, beta-arrestin recruitment and receptor internalization. The cAMP is generated by the activation of GLP1R. The extent to which the GLP1R is internalized into the cell and away from the plasma membrane following activation is also shown in Table 2. EC50 for each assay is defined as the concentration of the compound that leads to half of the maximum response (after baseline correction). Emax is defined as the maximum response observed for the test compound, normalized to the maximum response observed for the endogenous ligand (GLP1(7-36)) to GLP1R.
Human GLP1R β-Arrestin Recruitment Assay
The extent to which agonists recruited β-arrestin was measured using the PathHunter® β-arrestin assay (DiscoverX). This assay measures binding of β-arrestin to the receptor using an enzyme complementation approach. […] When β-arrestin is recruited to the receptor the enzyme becomes active and generates luminescence in the presence of a chemiluminescent substrate (PathHunter® Detection Kit, DiscoverX cat #93-0001). Luminescence can be measured on a relevant detector. CHO-hGLP1R-β-arrestin cells stably overexpressing hGLP1R with Prolink tag and β-arrestin with EA tag were seeded at 20 μL per well in white 384-well poly-D-Lysine coated plates (Greiner Bio One, cat #781945) in Plating Reagent 2 (DiscoverX, cat #93-0563R^2A), and incubated overnight at 37° C., 5% CO2 with humidity. The following day, agonists were prepared at 5 times the final required concentration. To generate triplicate dose response curves, compounds were serially diluted 3-fold in assay buffer (HBSS, 10 mM Hepes and 0.1% BSA), then added to the cell assay plate to a final volume of 25 μL and final top concentrations starting at 30 μM. In the same plate and assay buffer as the tested compounds, were EC100 control wells containing GLP1 (7-36) peptide (Bachem, cat #H-6795) at a final concentration of 1 μM and also EC0 control wells containing no compound. The plate was incubated at 37° C., 5% CO2 with humidity for 2 h after adding the compounds to the cells. Then the detection reagent was prepared (19 parts cell assay buffer, 5 parts substrate reagent 1 and 1 part substrate reagent 2 as per manufacturers recommendations, DiscoverX cat #93-0001), and 12 μL were added per well to the cell assay plate. The plate was incubated for an additional hour in the dark at RT. Luminescence was then measured with an Envision 2104 Multilabel reader with “TRF Light Unit, 337 nm” (Perkin Elmer) using the Ultra-Sensitive protocol setting “384-well US luminescence detector” with the 384-well luminescence aperture, 0.1 sec per well. β-arrestin recruitment was calculated and expressed as percent of the GLP1 (7-36) EC100 control wells: [(sample signal−mean EC0 signal)/(mean EC100 of GLP1 (7-36) signal−mean EC0 signal)]*100 using Microsoft Excel. Curve fitting for EC50 determinations was performed using GraphPad Prism. The 4-parameter logistic model, Hill slope was used: Y=Bottom+(Top−Bottom)/(1+10^((Log EC50−X)*Hill Slope)), where Y is the functional response; X is the compound concentration; bottom is A0 or the minimum value (at 0 dose); top is Ainf or the maximum value (at infinite dose); EC50 is the point of inflection (i.e. the point on the sigmoid shaped curve halfway between A0 and Ainf). The EC50 value was calculated in μM. Emax is the maximal activity detected within the concentration range, derived from the fitted curve relative to GLP1(7-36).
PathHunter CHO-K1-EA parental cells (DiscoverX, cat #93-0164) were plated at a density of 2×10^6 cells per T75 cm^2 flask in 22 mL of complete medium (AssayComplete Cell Culture kit 107, DiscoverX, cat #92-3107G). The following day, the medium was replaced with 22 mL of fresh medium with no antibiotics and cells were transfected as follows. […]

human GLP1R (hGLP1R), sequence (P43220 24-463): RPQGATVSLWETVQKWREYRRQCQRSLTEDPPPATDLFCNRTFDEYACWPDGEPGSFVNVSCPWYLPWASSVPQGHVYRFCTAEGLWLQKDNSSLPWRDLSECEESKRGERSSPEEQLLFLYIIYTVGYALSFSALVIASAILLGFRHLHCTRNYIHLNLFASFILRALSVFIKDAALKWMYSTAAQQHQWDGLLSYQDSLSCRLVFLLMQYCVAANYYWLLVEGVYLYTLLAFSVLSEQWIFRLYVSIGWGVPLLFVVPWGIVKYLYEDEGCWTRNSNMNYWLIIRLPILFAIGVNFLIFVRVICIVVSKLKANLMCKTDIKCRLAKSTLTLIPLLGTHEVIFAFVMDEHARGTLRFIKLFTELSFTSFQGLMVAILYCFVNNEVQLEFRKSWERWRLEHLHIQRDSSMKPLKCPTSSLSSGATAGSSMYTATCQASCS

SMILES | EC50 [µM] | Emax [%]
Cc1nc(CN2CCC(c3cccc4c3O[C@@](C)(c3ccc(Cl)cc3F)O4)CC2)n(C[C@@H]2CCO2)c1-c1nc(C(=O)O)c(C)o1 [Compound C-1, 2-(2-((4-((S)-2-(4-chloro-2-fluorophenyl)-2-methylbenzo[d][1,3]dioxol-4-yl)piperidin-1-yl)methyl)-4-methyl-1-(((S)-oxetan-2-yl)methyl)-1H-imidazol-5-yl)-5-methyloxazole-4-carboxylic acid] | > 30 | 2
C[C@]1(c2ccc(Cl)cc2F)Oc2cccc(C3CCN(Cc4nc(C(F)(F)F)c(-c5nc(C(=O)O)co5)n4C[C@@H]4CCO4)CC3)c2O1 [Compound C-4, 2-(2-((4-((S)-2-(4-chloro-2-fluorophenyl)-2-methylbenzo[d][1,3]dioxol-4-yl)piperidin-1-yl)methyl)-1-(((S)-oxetan-2-yl)methyl)-4-(trifluoromethyl)-1H-imidazol-5-yl)oxazole-4-carboxylic acid] | > 30 | 0
CCc1nc(CN2CCC(c3cccc4c3O[C@@](C)(c3ccc(Cl)cc3F)O4)CC2)n(C[C@@H]2CCO2)c1-c1nc(C(=O)O)co1 [Compound C-5, 2-(2-((4-((S)-2-(4-chloro-2-fluorophenyl)-2-methylbenzo[d][1,3]dioxol-4-yl)piperidin-1-yl)methyl)-4-ethyl-1-(((S)-oxetan-2-yl)methyl)-1H-imidazol-5-yl)oxazole-4-carboxylic acid] | > 30 | 0
CCc1nc(CN2CCC(c3cccc4c3O[C@@](C)(c3ccc(Cl)cc3F)O4)CC2)n(C[C@H]2CCO2)c1-c1nc(C(=O)O)co1 [Compound C-7, 2-(2-((4-((S)-2-(4-chloro-2-fluorophenyl)-2-methylbenzo[d][1,3]dioxol-4-yl)piperidin-1-yl)methyl)-4-ethyl-1-(((R)-oxetan-2-yl)methyl)-1H-imidazol-5-yl)oxazole-4-carboxylic acid] | > 30 | 5
Cc1nc(CN2CCC(c3cccc4c3O[C@@](C)(c3ccc(Cl)cc3F)O4)CC2)n(C[C@@H]2CCO2)c1-c1nc(C(=O)O)co1 [Compound C-9, 2-(2-((4-((S)-2-(4-chloro-2-fluorophenyl)-2-methylbenzo[d][1,3]dioxol-4-yl)piperidin-1-yl)methyl)-4-methyl-1-(((S)-oxetan-2-yl)methyl)-1H-imidazol-5-yl)oxazole-4-carboxylic acid] | > 30 | 0
CCc1oc(-c2c(C)nc(CN3CCC(c4cccc5c4O[C@@](C)(c4ccc(Cl)cc4F)O5)CC3)n2C[C@@H]2CCO2)nc1C(=O)O [Compound C-10, 2-(2-((4-((S)-2-(4-chloro-2-fluorophenyl)-2-methylbenzo[d][1,3]dioxol-4-yl)piperidin-1-yl)methyl)-4-methyl-1-(((S)-oxetan-2-yl)methyl)-1H-imidazol-5-yl)-5-ethyloxazole-4-carboxylic acid] | > 30 | 0
Cc1oc(-c2nc(CN3CCC(c4cccc5c4O[C@@](C)(c4ccc(Cl)cc4F)O5)CC3)n(C[C@@H]3CCO3)c2C)nc1C(=O)O [Compound C-12, 2-(2-((4-((S)-2-(4-chloro-2-fluorophenyl)-2-methylbenzo[d][1,3]dioxol-4-yl)piperidin-1-yl)methyl)-5-methyl-1-(((S)-oxetan-2-yl)methyl)-1H-imidazol-4-yl)-5-methyloxazole-4-carboxylic acid] | > 30 | 10
Cc1c(-c2nc(C(=O)O)co2)nc(CN2CCC(c3cccc4c3O[C@@](C)(c3ccc(Cl)cc3F)O4)CC2)n1C[C@@H]1CCO1 [Compound C-13, 2-(2-((4-((S)-2-(4-chloro-2-fluorophenyl)-2-methylbenzo[d][1,3]dioxol-4-yl)piperidin-1-yl)methyl)-5-methyl-1-(((S)-oxetan-2-yl)methyl)-1H-imidazol-4-yl)oxazole-4-carboxylic acid] | > 30 | 12
Cc1c(-c2nc(C(F)(F)F)c(C(=O)O)o2)nc(CN2CCC(c3cccc4c3O[C@@](C)(c3ccc(Cl)cc3F)O4)CC2)n1C[C@@H]1CCO1 [Compound C-14, 2-(2-((4-((S)-2-(4-chloro-2-fluorophenyl)-2-methylbenzo[d][1,3]dioxol-4-yl)piperidin-1-yl)methyl)-5-methyl-1-(((S)-oxetan-2-yl)methyl)-1H-imidazol-4-yl)-4-(trifluoromethyl)oxazole-5-carboxylic acid] | > 30 | 0
Cc1c(-c2cnc(C(=O)O)o2)nc(CN2CCC(c3cccc4c3O[C@@](C)(c3ccc(Cl)cc3F)O4)CC2)n1C[C@@H]1CCO1 [Compound C-16, 5-(2-((4-((S)-2-(4-chloro-2-fluorophenyl)-2-methylbenzo[d][1,3]dioxol-4-yl)piperidin-1-yl)methyl)-5-methyl-1-(((S)-oxetan-2-yl)methyl)-1H-imidazol-4-yl)oxazole-2-carboxylic acid] | > 30 | 11
Cc1c(-c2cc(C(=O)O)n(C)n2)nc(CN2CCC(c3cccc4c3O[C@@](C)(c3ccc(Cl)cc3F)O4)CC2)n1C[C@@H]1CCO1 [Compound C-17, 3-(2-((4-((S)-2-(4-chloro-2-fluorophenyl)-2-methylbenzo[d][1,3]dioxol-4-yl)piperidin-1-yl)methyl)-5-methyl-1-(((S)-oxetan-2-yl)methyl)-1H-imidazol-4-yl)-1-methyl-1H-pyrazole-5-carboxylic acid] | > 30 | 2
Cc1c(-c2coc(C(=O)O)n2)nc(CN2CCC(c3cccc4c3O[C@@](C)(c3ccc(Cl)cc3F)O4)CC2)n1C[C@@H]1CCO1 [Compound C-18, 4-(2-((4-((S)-2-(4-chloro-2-fluorophenyl)-2-methylbenzo[d][1,3]dioxol-4-yl)piperidin-1-yl)methyl)-5-methyl-1-(((S)-oxetan-2-yl)methyl)-1H-imidazol-4-yl)oxazole-2-carboxylic acid] | > 30 | 16
Cc1cc(-c2nc(CN3CCC(c4cccc5c4O[C@@](C)(c4ccc(Cl)cc4F)O5)CC3)n(C[C@@H]3CCO3)c2C)oc1C(=O)O [Compound C-19, 5-(2-((4-((S)-2-(4-chloro-2-fluorophenyl)-2-methylbenzo[d][1,3]dioxol-4-yl)piperidin-1-yl)methyl)-5-methyl-1-(((S)-oxetan-2-yl)methyl)-1H-imidazol-4-yl)-3-methylfuran-2-carboxylic acid] | > 30 | 7
Cc1nc(CN2CCC(c3cccc4c3O[C@@](C)(c3ccc(Cl)cc3F)O4)CC2)n(C[C@@H]2CCO2)c1-c1coc(C(=O)O)n1 [Compound C-20, 4-(2-((4-((S)-2-(4-chloro-2-fluorophenyl)-2-methylbenzo[d][1,3]dioxol-4-yl)piperidin-1-yl)methyl)-4-methyl-1-(((S)-oxetan-2-yl)methyl)-1H-imidazol-5-yl)oxazole-2-carboxylic acid] | > 30 | 0
Cc1nc(CN2CCC(c3cccc4c3O[C@@](C)(c3ccc(Cl)cc3F)O4)CC2)n(C[C@@H]2CCO2)c1-c1cc(C(=O)O)n(C)n1 [Compound C-21, 3-(2-((4-((S)-2-(4-chloro-2-fluorophenyl)-2-methylbenzo[d][1,3]dioxol-4-yl)piperidin-1-yl)methyl)-4-methyl-1-(((S)-oxetan-2-yl)methyl)-1H-imidazol-5-yl)-1-methyl-1H-pyrazole-5-carboxylic acid] | > 30 | 0
